Assay results published in patent publication US3937830A, “5-Pivaloyloxy-5-(1-phenylethyl) barbituric acid, analgetic composition and method based thereon” (The Kendall Company, priority 1974, dated 1976).
Read-outs that look alike come from different tables or passages of the source.

Assays:
[1] = Acute oral toxicity in mice; design: species or system adult albino male mice (Charles River strain); conditions: mouse, in vivo, 95% limits in parentheses
Protocol: (§1) All tests were conducted on adult albino male mice (Charles River strain); the dosage consisted of the active agent suspended in 10% aqueous acacia and was administered orally and/or subcutaneously as indicated.
(§2) Acute oral toxicity was determined in the conventional manner. The results were expressed as LD50, the dose required to produce death in 50% of the animals treated, determined graphically, with the 95% limits shown in parentheses.

[2] = Hot-plate analgetic activity (Eddy and Leimbach, modified); assay type: in vivo, adult albino male mice (Charles River strain); conditions: for ED50: Mus musculus, mice
Protocol: as §1
Two established procedures were employed to determine analgetic activity. The method described by Eddy, N. B., and Leimbach, D., J. Pharmacol. Exptl. Therap. 107, 385 (1953) was followed, with the following modifications, in the first procedure. Mice are pretested by placing them individually on the cleaned surface of a copper water bath, the temperature of which is maintained at 54°-55°C. The reaction time of this noxious thermal stimulus is the time in seconds required for either licking of the paws or jumping, such that all four paws leave the surface of the plate. The drug is then administered orally or subcutaneously, generally at five dosage levels, (10 mice per dosage level) and the reaction times are redetermined at intervals of 1/2 hour, 1 hour, and 2 hours; the time of peak activity is the time at which the greatest number of animals is protected. From the pretreatment reaction times the mean and standard deviations are computed. The cut-off time is taken to be the mean reaction time plus 2 standard deviation units. Reaction times equal to or exceeding this cut-off time are considered to represent analgetic responses. The dosage required to produce an analgetic response in 50% of the animals (ED50 and 95% limits) is computed graphically.

[3] = Therapeutic index (LD50 divided by ED50); design: species or system adult albino male mice (Charles River strain); conditions: mouse, in vivo; oral LD50 / oral hot-plate ED50, mice
Protocol: By therapeutic index is meant the LD50 of a compound divided by its ED50, or the dose required to kill one-half of the test animals divided by the dose required to produce the desired therapeutic effect in one-half of the test animals. It will be apparent that the larger the therapeutic index, the greater the margin of safety and the more desirable the drug.
as §1, §2
Two established procedures were employed to determine analgetic activity. The method described by Eddy, N. B., and Leimbach, D., J. Pharmacol. Exptl. Therap. 107, 385 (1953) was followed, with the following modifications, in the first procedure. Mice are pretested by placing them individually on the cleaned surface of a copper water bath, the temperature of which is maintained at 54°-55°C. The reaction time of this noxious thermal stimulus is the time in seconds required for either licking of the paws or jumping, such that all four paws leave the surface of the plate. […]

[4] = Phenyl-p-quinone writhing (Siegmund); assay type: in vivo, adult albino male mice (Charles River strain); conditions: oral, mice, not dose-related
Protocol: as §1
In the second procedure, the method of Siegmund, E., et al. reported in Proc. Soc. Exptl. Biol. and Med. 95, 729, (1957) was generally followed. The method is based on the antagonism by both non-narcotic and narcotic analgetics of a syndrome induced in mice following intraperitoneal injection of phenyl-p-quinone. The syndrome is characterized by intermittent contractions of the abdomen, twisting and turning of the trunk, and extension of the hind legs, beginning 3 to 10 minutes after the injection and persisting for more than one hour. The test drug is administered orally at four to five dosage levels. At the time of peak activity, 0.25 ml. of a 0.02 per cent solution of phenyl-p-quinone in 5 per cent (aqueous) ethyl alcohol is injected intraperitoneally. Inhibition of the syndrome is considered an analgetic response.

For `CC(c1ccccc1)C1(OC(=O)C(C)(C)C)C(=O)NC(=O)NC1=O` (centres unmarked) [5-pivaloyloxy-5-(1-phenylethyl) barbituric acid], the LD50 [1] was 690 mg/kg, the ED50 ([2]; sc, subcutaneous, not dose-related, read-out: Hot-Plate ED50 (subcutaneous)) was 40 to 80 mg/kg and the ED50 ([2]; oral, read-out: Hot-Plate ED50 (oral)) was < 3.1 mg/kg. For the same compound, the “Time of Peak Activity” value ([2]; time at which the greatest number of animals is protected) was 1/2, the selectivity ratio [3] was > 230 and the “Phenyl-p-quinone Writhing, % active” value ([4]; 100 mg/kg) was 26%. The “Phenyl-p-quinone Writhing, % active” value ([4]; 200 mg/kg) was 30% and the “Phenyl-p-quinone Writhing, % active” value ([4]; 400 mg/kg) was 10%.
